Reference: ChEMBL document CHEMBL4411288, “Design, synthesis and biological evaluation of novel 7-amino-[1,2,4]triazolo[4,3-f]pteridinone, and 7-aminotetrazolo[1,5-f]pteridinone derivative as potent antitumor agents” (Eur J Med Chem, 2019)
Activity calls are given as the source filed them. The rule behind the calls is not given here.

Assays:
[1] = target: Serine/threonine-protein kinase PLK1 (Homo sapiens) (UniProt P53350); assay: Inhibition of recombinant human N-terminal His6-tagged PLK1 expressed in baculovirus infected Sf21 insect cells at 1 uM using FAM-labelled peptide as substrate preincubated for 10 mins followed by substrate addition measured after 1 hr relative to control
Chain of Serine/threonine-protein kinase PLK1 (Homo sapiens) (P53350 whole entry): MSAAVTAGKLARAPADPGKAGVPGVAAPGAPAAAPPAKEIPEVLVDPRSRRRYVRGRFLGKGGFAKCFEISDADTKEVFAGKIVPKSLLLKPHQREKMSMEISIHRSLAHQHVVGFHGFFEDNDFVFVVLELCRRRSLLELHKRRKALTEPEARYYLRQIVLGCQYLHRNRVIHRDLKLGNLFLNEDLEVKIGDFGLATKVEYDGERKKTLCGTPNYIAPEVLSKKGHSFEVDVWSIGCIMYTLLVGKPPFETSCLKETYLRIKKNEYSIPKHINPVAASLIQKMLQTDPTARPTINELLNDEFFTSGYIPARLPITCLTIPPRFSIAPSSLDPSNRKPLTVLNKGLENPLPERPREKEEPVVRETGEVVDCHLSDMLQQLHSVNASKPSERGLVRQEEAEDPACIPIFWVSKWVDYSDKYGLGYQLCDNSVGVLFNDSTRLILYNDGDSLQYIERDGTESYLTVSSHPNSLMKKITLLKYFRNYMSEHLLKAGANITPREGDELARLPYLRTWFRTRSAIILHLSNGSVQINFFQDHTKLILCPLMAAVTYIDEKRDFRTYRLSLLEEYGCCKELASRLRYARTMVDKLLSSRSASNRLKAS

PC-3 = assay: Cytotoxicity against human PC3 cells assessed as reduction in cell viability after 72 hrs by MTT assay; assay type: functional, cell-based; conditions: PC-3, 72 h
HCT-116 = assay: Cytotoxicity against human HCT116 cells assessed as reduction in cell viability after 72 hrs by MTT assay; assay type: functional, cell-based; conditions: HCT-116, 72 h
MDA-MB-231 = assay: cells; conditions: Homo sapiens, MDA-MB-231, 72 h
Description: Cytotoxicity against human MDA-MB-231 cells assessed as reduction in cell viability after 72 hrs by MTT assay

MCF7 = assay: cells; conditions: Homo sapiens, MCF7, 72 h
Description: Cytotoxicity against human MCF7 cells assessed as reduction in cell viability after 72 hrs by MTT assay

A549 [2] = assay: Cytotoxicity against human A549 cells assessed as reduction in cell viability after 72 hrs by MTT assay; assay type: functional, cell-based; conditions: A549, 72 h
A549 [3] = assay: Induction of apoptosis in human A549 cells assessed as late apoptotic cells at 5 uM after 24 hrs by acridine orange/ethidium bromide staining-based fluorescence microscopic method; assay type: functional, cell-based
A549 [4] = assay: Cell cycle arrest in human A549 cells assessed as accumulation at S phase at 5 uM after 24 hrs by propidium iodide staining based flow cytometric analysis (reference value: 29.93%); assay type: functional
A549 [5] = assay: Induction of apoptosis in human A549 cells assessed as late apoptotic cells at 1 uM after 24 hrs by acridine orange/ethidium bromide staining-based fluorescence microscopic method; assay type: functional, cell-based
A549 [6] = assay: Antimigratory activity in human A549 cells assessed as wound healing at 0.2 uM after 24 hrs by fluorescence microscopic method (reference value: 58.5%); assay type: functional
A549 [7] = assay: Antimigratory activity in human A549 cells assessed as wound healing at 0.2 uM after 36 hrs by fluorescence microscopic method (reference value: 100%); assay type: functional
A549 [8] = assay: Cell cycle arrest in human A549 cells assessed as accumulation at G2 phase at 5 uM after 24 hrs by propidium iodide staining based flow cytometric analysis (reference value: 6.73%); assay type: functional
A549 [9] = assay: Cell cycle arrest in human A549 cells assessed as accumulation at S phase at 0.2 uM after 24 hrs by propidium iodide staining based flow cytometric analysis (reference value: 29.93%); assay type: functional
A549 [10] = assay: Antimigratory activity in human A549 cells assessed as wound healing at 1 uM after 24 hrs by fluorescence microscopic method (reference value: 58.5%); assay type: functional
A549 [11] = assay: Cell cycle arrest in human A549 cells assessed as accumulation at G1 phase at 0.2 uM after 24 hrs by propidium iodide staining based flow cytometric analysis (reference value: 63.34%); assay type: functional
A549 [12] = assay: Cell cycle arrest in human A549 cells assessed as accumulation at G1 phase at 1 uM after 24 hrs by propidium iodide staining based flow cytometric analysis (reference value: 63.34%); assay type: functional
A549 [13] = assay: Cell cycle arrest in human A549 cells assessed as accumulation at G2 phase at 1 uM after 24 hrs by propidium iodide staining based flow cytometric analysis (reference value: 6.73%); assay type: functional
A549 [14] = assay: Cell cycle arrest in human A549 cells assessed as accumulation at G2 phase at 0.2 uM after 24 hrs by propidium iodide staining based flow cytometric analysis (reference value: 6.73%); assay type: functional
A549 [15] = assay: Antimigratory activity in human A549 cells assessed as inhibition of wound healing up to 36 hrs by fluorescence microscopic method; assay type: functional, cell-based
A549 [16] = assay: Cell cycle arrest in human A549 cells assessed as accumulation at G1 phase at 5 uM after 24 hrs by propidium iodide staining based flow cytometric analysis (reference value: 63.34%); assay type: functional
A549 [17] = assay: Antimigratory activity in human A549 cells assessed as wound healing at 0.2 uM after 12 hrs by fluorescence microscopic method (reference value: 26.2%); assay type: functional
A549 [18] = assay: Antimigratory activity in human A549 cells assessed as wound healing at 1 uM after 12 hrs by fluorescence microscopic method (reference value: 26.2%); assay type: functional
A549 [19] = assay: Antimigratory activity in human A549 cells assessed as wound healing at 1 uM after 36 hrs by fluorescence microscopic method (reference value: 100%); assay type: functional
A549 [20] = assay: Cell cycle arrest in human A549 cells assessed as accumulation at S phase at 1 uM after 24 hrs by propidium iodide staining based flow cytometric analysis (reference value: 29.93%); assay type: functional

Compound	inhibition [1] [%]	IC50 (PC-3) [nM]	IC50 (HCT-116) [nM]	IC50 (MDA-MB-231) [nM]	IC50 (MCF7) [nM]	IC50 (A549 [2]) [nM]	further results
CN1CCN(c2ccc(Nc3ncc4c(n3)n(C3CCCC3)c(=O)c3nnnn34)cc2)CC1	19.3	3800	19100	15800	> 50000	1250	–
CCN1CCN(c2ccc(Nc3ncc4c(n3)n(C3CCCC3)c(=O)c3nnc(C)n34)cc2)CC1	44.7	5000	9610	2250	510	680	–
Cc1nnc2c(=O)n(C3CCCC3)c3nc(Nc4ccc(N5CCN(C)CC5)cc4)ncc3n12	26.1	7610	72800	610	1050	1920	–
Cc1nnc2c(=O)n(C3CCCC3)c3nc(Nc4ccc(N5CC(C)NC(C)C5)cc4)ncc3n12 (stereo unspecified)	86.4	510	300	700	300	160	Activity (A549 [3]): Active; Activity (A549 [4]): 13.37%; Activity (A549 [5]): Active; Activity (A549 [6]): 33.7%; Activity (A549 [7]): 51.4%; Activity (A549 [8]): 4.32%; Activity (A549 [9]): 20.46%; Activity (A549 [10]): 27.8%; Activity (A549 [11]): 74.99%; Activity (A549 [12]): 79.82%; Activity (A549 [13]): 5.64%; Activity (A549 [14]): 4.55%; inhibition (A549 [15]): Dose-dependent effect; Activity (A549 [16]): 82.32%; Activity (A549 [17]): 25.1%; Activity (A549 [18]): 24.4%; Activity (A549 [19]): 43.1%; Activity (A549 [20]): 14.54%
CCN1CCN(c2ccc(Nc3ncc4c(n3)n(C3CCCC3)c(=O)c3nncn34)cc2)CC1	27.4	3480	7500	> 50000	980	1070	–
CC1CN(c2ccc(Nc3ncc4c(n3)n(C3CCCC3)c(=O)c3nnnn34)cc2)CC(C)N1 (stereo unspecified)	77.9	1000	600	1600	500	440	Activity (A549 [3]): Active; Activity (A549 [5]): Active
Cc1nnc2c(=O)n(C3CCCC3)c3nc(Nc4ccc(N5CCN(C6CCCC6)CC5)cc4)ncc3n12	31.6	> 50000	> 50000	9120	> 50000	11400	–
CC1CN(c2ccc(Nc3ncc4c(n3)n(C3CCCC3)c(=O)c3nncn34)cc2)CC(C)N1 (stereo unspecified)	72.1	3260	4400	4800	410	890	–
Cc1nnc2c(=O)n(C3CCCC3)c3nc(Nc4ccc(N5CCN(CCO)CC5)cc4)ncc3n12	28.2	8440	7610	3350	750	5460	–
CC[C@@H]1C(=O)N(C)c2cnc(Nc3ccc(C(=O)N[C@H]4CC[C@H](N5CCN(CC6CC6)CC5)CC4)cc3OC)nc2N1C(C)C [VOLASERTIB]	97.7	90	110	110	90	80	–
CN1CCN(c2ccc(Nc3ncc4c(n3)n(C3CCCC3)c(=O)c3nncn34)cc2)CC1	44.2	26500	8000	> 50000	> 50000	6960	–
